Laboratory results: patent US20250230193A1, “CYCLIC COMPOUND HAVING SELECTIVE KRAS INHIBITORY EFFECT ON HRAS AND NRAS” (CHUGAI SEIYAKU KABUSHIKI KAISHA, priority 2022, published 2025)
Where a SMILES comes first, the peptide text is derived from it. Bridges are numbered along the chain shown (N, C = ends). [ ]: non-standard residue; d: D form. The star is where a group is joined. hPhe(3-Cl-4-CF3) = N[C@@H](CCc1ccc(C(F)(F)F)c(Cl)c1)C(=O)O; NPrPhe(4-CF3) = CCCN[C@@H](Cc1ccc(C(F)(F)F)cc1)C(=O)O; NMeGly(cPent) = CN[C@H](C(=O)O)C1CCCC1; Pro(4,4-F2) = O=C(O)[C@@H]1CC(F)(F)CN1; Hyp = O=C(O)[C@@H]1C[C@@H](O)CN1; NMeL = CN[C@@H](CC(C)C)C(=O)O; Morpholide = C1CN(*)CCO1; Ac5c = NC1(C(=O)O)CCCC1; Aze = O=C(O)[C@@H]1CCN1; Ac4c = NC1(C(=O)O)CCC1; Sar = CNCC(=O)O

Tests used:
[1] = biological target: GDP-bound NRAS wild-type protein (Homo sapiens, UniProt P01111); assay: Binding to NRAS by surface plasmon resonance (SPR), Single Cycle Kinetics; conditions: KD ratio NRAS/KRAS, SPR
GDP-bound NRAS wild-type protein, sequence (P01111 whole entry): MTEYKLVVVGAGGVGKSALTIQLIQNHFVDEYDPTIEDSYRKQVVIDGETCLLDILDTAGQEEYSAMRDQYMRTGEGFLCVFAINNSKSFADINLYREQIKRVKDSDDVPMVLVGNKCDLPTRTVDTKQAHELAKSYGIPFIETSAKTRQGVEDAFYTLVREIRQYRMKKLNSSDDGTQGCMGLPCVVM

[2] = biological target: GDP-bound HRAS wild-type protein (Homo sapiens, UniProt P01112); assay: Binding to HRAS by surface plasmon resonance (SPR), Single Cycle Kinetics; conditions: KD ratio HRAS/KRAS, SPR
GDP-bound HRAS wild-type protein, sequence (P01112 whole entry): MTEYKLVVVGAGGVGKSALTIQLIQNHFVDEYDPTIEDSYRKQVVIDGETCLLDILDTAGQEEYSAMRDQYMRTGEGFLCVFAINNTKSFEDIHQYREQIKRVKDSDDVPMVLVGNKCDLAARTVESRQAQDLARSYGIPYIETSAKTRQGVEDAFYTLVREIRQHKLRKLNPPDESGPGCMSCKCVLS

SMILES	NRAS/KRAS (ratio of KD for GDP-bound NRAS wild-type to KD for KRAS) [1]	HRAS/KRAS (ratio of KD for GDP-bound HRAS wild-type to KD for KRAS) [2]
CCCN1C(=O)[C@@H]2CCN2C(=O)CN(C)C(=O)[C@H]([C@@H](C)CC)NC(=O)[C@H](CC(C)C)N(C)C(=O)C[C@@H](C(=O)N2CCOCC2)NC(=O)[C@H](C2CCCC2)N(C)C(=O)C2(CCCC2)NC(=O)[C@@H]2CC(F)(F)CN2C(=O)[C@H](CCc2ccc(C(F)(F)F)c(Cl)c2)NC(=O)CN(C)C(=O)[C@@H]1Cc1ccc(C(F)(F)F)cc1 [PP0351] ([NMeL]I[Sar][Aze][NPrPhe(4-CF3)][Sar][hPhe(3-Cl-4-CF3)][Pro(4,4-F2)][Ac5c][NMeGly(cPent)]D-Morpholide; lactam N-11)	C (A compound having a KD ratio of 0.1 or more and less than 3 is denoted as C)	B (a compound having 3 or more and less than 10 is denoted as B)
CCCN1C(=O)[C@@H]2CCN2C(=O)CN(C)C(=O)[C@H]([C@@H](C)CC)NC(=O)[C@H](CC(C)C)N(C)C(=O)C[C@@H](C(=O)N2CCOCC2)NC(=O)[C@H](C2CCCC2)N(C)C(=O)C2(CCC2)NC(=O)[C@@H]2CC(F)(F)CN2C(=O)[C@H](CCc2ccc(C(F)(F)F)c(Cl)c2)NC(=O)CN(C)C(=O)[C@@H]1Cc1ccc(C(F)(F)F)cc1 [PP0352] ([NMeL]I[Sar][Aze][NPrPhe(4-CF3)][Sar][hPhe(3-Cl-4-CF3)][Pro(4,4-F2)][Ac4c][NMeGly(cPent)]D-Morpholide; lactam N-11)	C (A compound having a KD ratio of 0.1 or more and less than 3 is denoted as C)	B (a compound having 3 or more and less than 10 is denoted as B)
CCCN1C(=O)[C@@H]2CCN2C(=O)CN(C)C(=O)[C@H]([C@@H](C)CC)NC(=O)[C@H](CC(C)C)N(C)C(=O)C[C@@H](C(=O)N2CCOCC2)NC(=O)[C@H](C2CCCC2)N(C)C(=O)C2(CCCC2)NC(=O)[C@@H]2C[C@@H](OCC)CN2C(=O)[C@H](CCc2ccc(C(F)(F)F)c(Cl)c2)NC(=O)CN(C)C(=O)[C@@H]1Cc1ccc(C(F)(F)F)cc1 [PP0353] ([NMeL]I[Sar][Aze][NPrPhe(4-CF3)][Sar][hPhe(3-Cl-4-CF3)][Hyp](Et)[Ac5c][NMeGly(cPent)]D-Morpholide; lactam N-11)	C (A compound having a KD ratio of 0.1 or more and less than 3 is denoted as C)	B (a compound having 3 or more and less than 10 is denoted as B)
CCCN1C(=O)[C@@H]2CCN2C(=O)CN(C)C(=O)[C@H]([C@@H](C)CC)NC(=O)[C@H](CC(C)C)N(C)C(=O)C[C@@H](C(=O)N2CCOCC2)NC(=O)[C@H](C2CCCC2)N(C)C(=O)C2(CCC2)NC(=O)[C@@H]2C[C@@H](OCC)CN2C(=O)[C@H](CCc2ccc(C(F)(F)F)c(Cl)c2)NC(=O)CN(C)C(=O)[C@@H]1Cc1ccc(C(F)(F)F)cc1 [PP0354] ([NMeL]I[Sar][Aze][NPrPhe(4-CF3)][Sar][hPhe(3-Cl-4-CF3)][Hyp](Et)[Ac4c][NMeGly(cPent)]D-Morpholide; lactam N-11)	C (A compound having a KD ratio of 0.1 or more and less than 3 is denoted as C)	B (a compound having 3 or more and less than 10 is denoted as B)
CCCN1C(=O)CN(C)C(=O)CN(C)C(=O)[C@H]([C@@H](C)CC)NC(=O)[C@H](CC(C)C)N(C)C(=O)C[C@@H](C(=O)N(C)C)NC(=O)[C@H](C2CCCC2)N(C)C(=O)C2(CCCC2)NC(=O)[C@@H]2CCCN2C(=O)[C@H](CCc2ccc(C(F)(F)F)c(Cl)c2)NC(=O)CN(C)C(=O)[C@@H]1Cc1ccc(C(F)(F)F)cc1 [PP0355] ([NMeL]I[Sar][Sar][NPrPhe(4-CF3)][Sar][hPhe(3-Cl-4-CF3)]P[Ac5c][NMeGly(cPent)]D-NMe2; lactam N-11)	B (a compound having 3 or more and less than 10 is denoted as B)	B (a compound having 3 or more and less than 10 is denoted as B)
CCCN1C(=O)CN(C)C(=O)CN(C)C(=O)[C@H]([C@@H](C)CC)NC(=O)[C@H](CC(C)C)N(C)C(=O)C[C@@H](C(=O)N(C)C)NC(=O)[C@H](C2CCCC2)N(C)C(=O)C2(CCC2)NC(=O)[C@@H]2CCCN2C(=O)[C@H](CCc2ccc(C(F)(F)F)c(Cl)c2)NC(=O)CN(C)C(=O)[C@@H]1Cc1ccc(C(F)(F)F)cc1 [PP0356] ([NMeL]I[Sar][Sar][NPrPhe(4-CF3)][Sar][hPhe(3-Cl-4-CF3)]P[Ac4c][NMeGly(cPent)]D-NMe2; lactam N-11)	B (a compound having 3 or more and less than 10 is denoted as B)	B (a compound having 3 or more and less than 10 is denoted as B)
CCCN1C(=O)CN(C)C(=O)CN(C)C(=O)[C@H]([C@@H](C)CC)NC(=O)[C@H](CC(C)C)N(C)C(=O)C[C@@H](C(=O)N(C)C)NC(=O)[C@H](C2CCCC2)N(C)C(=O)C2(CCCC2)NC(=O)[C@@H]2CC(F)(F)CN2C(=O)[C@H](CCc2ccc(C(F)(F)F)c(Cl)c2)NC(=O)CN(C)C(=O)[C@@H]1Cc1ccc(C(F)(F)F)cc1 [PP0357] ([NMeL]I[Sar][Sar][NPrPhe(4-CF3)][Sar][hPhe(3-Cl-4-CF3)][Pro(4,4-F2)][Ac5c][NMeGly(cPent)]D-NMe2; lactam N-11)	B (a compound having 3 or more and less than 10 is denoted as B)	B (a compound having 3 or more and less than 10 is denoted as B)
CCCN1C(=O)CN(C)C(=O)CN(C)C(=O)[C@H]([C@@H](C)CC)NC(=O)[C@H](CC(C)C)N(C)C(=O)C[C@@H](C(=O)N(C)C)NC(=O)[C@H](C2CCCC2)N(C)C(=O)C2(CCC2)NC(=O)[C@@H]2CC(F)(F)CN2C(=O)[C@H](CCc2ccc(C(F)(F)F)c(Cl)c2)NC(=O)CN(C)C(=O)[C@@H]1Cc1ccc(C(F)(F)F)cc1 [PP0358] ([NMeL]I[Sar][Sar][NPrPhe(4-CF3)][Sar][hPhe(3-Cl-4-CF3)][Pro(4,4-F2)][Ac4c][NMeGly(cPent)]D-NMe2; lactam N-11)	B (a compound having 3 or more and less than 10 is denoted as B)	C (A compound having a KD ratio of 0.1 or more and less than 3 is denoted as C)
CCCN1C(=O)CN(C)C(=O)CN(C)C(=O)[C@H]([C@@H](C)CC)NC(=O)[C@H](CC(C)C)N(C)C(=O)C[C@@H](C(=O)N(C)C)NC(=O)[C@H](C2CCCC2)N(C)C(=O)C2(CCCC2)NC(=O)[C@@H]2C[C@@H](OCC)CN2C(=O)[C@H](CCc2ccc(C(F)(F)F)c(Cl)c2)NC(=O)CN(C)C(=O)[C@@H]1Cc1ccc(C(F)(F)F)cc1 [PP0359] ([NMeL]I[Sar][Sar][NPrPhe(4-CF3)][Sar][hPhe(3-Cl-4-CF3)][Hyp](Et)[Ac5c][NMeGly(cPent)]D-NMe2; lactam N-11)	B (a compound having 3 or more and less than 10 is denoted as B)	B (a compound having 3 or more and less than 10 is denoted as B)
